Source: patent US20260232693A1, “IMPROVING GLYMPHATIC-LYMPHATIC EFFLUX” (UNIVERSITY OF ROCHESTER, priority 2023, published 2026)
“Also recorded” adds a separate entry of the source.

Key:
Type in all cases: in vivo, C57BL/6 mice
[1] = tested on: cervical lymphatic vessels (cLVs); assay: 2P-OPTIC two-photon imaging with particle tracking of cervical lymphatic vessel contraction and flow, before and after topical PGF2α; conditions: for decrease in retrograde fraction / ejection rate / increase in ejection fraction / increase in ejection volume / median vessel diameter: after vs before PGF2α; for retrograde fraction after PGF2α / ejection fraction after PGF2α: mean±SEM; for increase in intrinsic pulsation rate: after vs before topical PGF2α 5 μM
[2] = tested on: superficial cervical lymph vessels; assay: DB53 brain clearance assay (intrastriatal injection, brain retention and femoral vein signal)
Procedure: Clearance assay was conducted using our published method (Pla, V. et al. A real-time in vivo clearance assay for quantification of glymphatic efflux. Cell Rep 40, 111320 (2022)). Briefly, anesthetized mice were mounted in a stereotactic apparatus and a small burr hole was made (AP+0.6 mm; ML-2.0 mm). A guide cannula (26G, […] SPC, 4.5 mm below pedestal) and dummy cannula ([…], 0.1 mm projection) was placed at DV 3.3 mm. After 48 hr, the dummy cannula was replaced by the inner cannula (33G, […]/SP, 0.1 mm projection), connected by a PE10 tubing to a 10 μL Hamilton syringe containing 4% (w/v) DB53 in sterile aCSF. The left femoral vein was exposed via skin resection and was placed under a fluorescent macroscope (microscope: MVX10, Olympus; light: PRIOR Lumen 1600-LED; camera: Flash 4.0 digital, Hamamatsu). The pump infusion (1 μL, […]) was triggered simultaneously with the imaging over the vein, once every 15 min for 2 h for the intraparenchymal delivery. […] At the end of the experiment, animals were decapitated, and their brains were harvested for postmortem analysis. For quantitative image analysis for femoral vein and ex vivo in the brain is the same as described in Pla, V. et al. A real-time in vivo clearance assay for quantification of glymphatic efflux. Cell Rep 40, 111320 (2022).

[3] = tested on: cervical lymph nodes (cLNs); assay: Ex vivo cervical lymph node imaging of OVA-647 accumulation; conditions: 90 min
Procedure: One microliter PBS with or without 5 μM PGF2a was applied directly onto the cervical lymph vessel simultaneously with the injection of OVA-647 (0.5% w/v, 45 kDa, Invitrogen, 10 μL, 2 μL/min) into cisterna magna for 90 min. Then the superficial and deep cervical lymph nodes were dissected and put on the microscope slices (Fisherbrand). The lymph nodes were placed under the macroscope (MVX10 Research Macro Zoom Microscope, 633 Olympus). The images were acquired in the far-red emission channel (647 nm).

[4] = tested on: cervical lymphatic vessels (cLVs); assay: Epi-fluorescent macroscopic imaging of OVA-647 CSF tracer drainage in cervical lymphatic vessels; conditions: 60 min imaging, 5 μM PGF2α topical
Procedure: Ovalbumin-conjugated to Alexa Fluor 647 (OVA-647, 0.5% w/v, 45 kDa, Invitrogen, 10 μL, 2 μL/min) was injected into the cisterna magna through a 30G needle connected to PE-10 tubing using a syringe pump (Harvard Apparatus). Cervical lymphatic vessels were surgically exposed as before and imaged using a fluorescent macroscope (MVX10, Olympus) with a PRIOR Lumen 1600-LED light source and ORCA Flash 4.0 digital camera (Hamamatsu) using Metamorph software. The images at 20× magnification from the far-red emission channel (647 nm) were collected at 1 min intervals for 60 min following the start of the injection. Exposure time was kept constant across all the experimental groups. One microliter PBS with or without 5 μM PGF2a was applied directly onto the cervical lymph vessel simultaneously with the injection of OVA-647 into cisterna magna.

[5] = Measurement of vital signs (heart and respiratory rate) before and after PGF2α; conditions: topical PGF2α; young and old mice
Procedure: Heart and respiratory rate were measured using a small animal physiological monitoring 494 device (Harvard Apparatus) which acquired measurements at 1 kHz and 250 Hz, respectively. The signals were digitized and recorded with a DigiData 1550A digitizer and AxoScope software 496 (Axon Instruments).

For `CCCCC[C@H](O)/C=C/[C@@H]1[C@@H](C/C=C\CCCC(=O)O)[C@@H](O)C[C@H]1O` [PGF2α, prostaglandin F2α], the “decrease in retrograde fraction” value ([1]; 2-month-old mice) was 64.2%, the ejection rate ([1]; 2-month-old mice) was “no change” and the “increase in ejection fraction” value ([1]; 2-month-old mice) was 7.0%. The “increase in ejection volume” value ([1]; 2-month-old mice) was 148.6%, the median vessel diameter ([1]; 2-month-old mice) was “decreased” and the “retrograde fraction after PGF2α” value ([1]; 2-month-old mice, before: 8.1±1.0) was 2.9±0.6%. For the same compound, the “ejection fraction after PGF2α” value ([1]; 2-month-old mice, before: 90.8±0.8) was 97.1±0.6%, the “increase in CSF drainage (number of microsphere particles detected in cLVs)” value ([1]; 2-month-old mice, intracisternal fluorescent microspheres) was 35.4% and the “decrease in retrograde fraction” value ([1]; 22-month-old mice) was 83.6%. The ejection rate ([1]; 22-month-old mice) was “no change”, the “increase in ejection fraction” value ([1]; 22-month-old mice) was 31.7% and the “increase in ejection volume” value ([1]; 22-month-old mice) was 181.4%. For the same compound, the median vessel diameter ([1]; 22-month-old mice) was “decreased”, the “retrograde fraction after PGF2α” value ([1]; 22-month-old mice, before: 27.5±2.1) was 4.5±0.4% and the “ejection fraction after PGF2α” value ([1]; 22-month-old mice, before: 72.5±2.1) was 95.5±0.5%. For the same compound, the “solute arriving to the cLN (particle count) compared to untreated aged controls” value ([1]; aged mice, intracisternal fluorescent microspheres) was roughly 4 times, the “increase in intrinsic pulsation rate” value ([1]; old (22-month-old) mice) was 152.0% and the “increase in flow speeds” value ([1]; old mice, after vs before topical PGF2α) was 3.5 fold. The “contraction amplitude (Δd)” value ([1]; vs before PGF2α) was “increased”, the “increase in intrinsic pulsation rate” value ([1]; young (2-month-old) mice) was 50.7% and the “increase in downstream speed” value ([1]; young mice, after vs before topical PGF2α) was 103.1%. The “DB53 signal in the femoral vein” value ([2]; 75 min, control 4.6±0.8) was 8.3±1.3, the “DB53 signal in the femoral vein” value ([2]; 90 min, control 5.5±0.6) was 10.3±1.5 and the “DB53 signal in the femoral vein” value ([2]; 105 min, control 6.6±0.7) was 10.8±1.4. For the same compound, the “DB53 signal in the femoral vein” value ([2]; 120 min, control 6.8±0.7) was 11.45±8.3, the “DB53 signal in the femoral vein (brain clearance to plasma), overall vs control” value ([2]; 2 h imaging) was “dramatically increased” and the “DB53 retained in the brain (% area of DB53 fluorescence)” value ([2]; after intrastriatal DB53, control 10.1±1.3, mean±SEM) was 6.3±0.9 % area. The “accumulation of OVA647 in cLNs, ex vivo” value ([3]; 2-month-old mice) was “significantly larger accumulation”, the “accumulation of OVA647 in cLNs, ex vivo” value ([3]; 22-month-old mice) was “significantly larger accumulation” and the “CSF drainage of OVA647 tracer (fluorescence intensity in cLVs)” value ([4]; old (22-month-old) mice) was “promoted robust CSF drainage”. The “CSF drainage of OVA647 tracer (fluorescence intensity in cLVs)” value ([4]; young mice) was “promoted robust CSF drainage” and the respiratory rate [5] was “did not induce changes; also recorded: unaffected”.
